Entries after “also recorded” stand apart in the source; their conditions may differ.
What was measured:
[1] = tested on: Rb phosphorylation at Ser780 and Ser807/811 in A2058; experiment: Rb phosphorylation western blot, CDK4/6-independent cell line; format: cell-based; details: 300 nM; 4, 8, 16, 24 hours
Protocol: (§1) MAPK levels are shown as a control for protein levels. Following treatment, cells were harvested and analyzed for Rb-phosphorylation by western blot analysis.
(§2) The CDK4/6-cyclin D complex is essential for progression from G1 to the S-phase of the DNA cell cycle. This complex phosphorylates the retinoblastoma tumor suppressor protein (Rb). […] Samples were lysed and protein was assayed by western blot analysis. Rb phosphorylation was measured at two sites targeted by the CDK4/6-cyclin D complex, Ser780 and Ser807/811 using species specific antibodies.

[2] = tested on: MMTV-c-neu (Rb-positive) tumors; experiment: MMTV-c-neu HER2-driven (Rb-positive) luminal breast cancer mouse model; format: in vivo, mice
From the text: A HER2-driven model (Rb-positive) of breast cancer (Muller W J, Sinn E, Pattengale P K, Wallace R, Leder P. Single-step induction of mammary adenocarcinoma in transgenic mice bearing the activated c-neu oncogene. Cell 1988; 54: 105-15), that expresses c-neu (the mouse ortholog of human HER2) driven by the MMTV promoter was used in the following example. This model was chosen because previous studies in murine (Yu Q, Geng Y, Sicinski P. Specific protection against breast cancers by cyclin D1 ablation. Nature 2001; 411: 1017-21; Landis M W, Pawlyk B S, Li T, Sicinski P, Hinds P W. Cyclin D1-dependent kinase activity in murine development and mammary tumorigenesis. Cancer Cell 2006; 9: 13-22; Reddy H K, Mettus R V, Rane S G, Grana X, Litvin J, Reddy E P. Cyclin-dependent kinase 4 expression is essential for neu-induced breast tumorigenesis. Cancer Res 2005; 65: 10174-8; Yu Q, Sicinska E, Geng Y, Ahnstrom M, Zagozdzon A, Kong Y, et al. Requirement for CDK4 kinase function in breast cancer. Cancer Cell 2006; 9: 23-32.) and human HER2-positive breast cancer (An H X, Beckmann M W, Reifenberger G, Bender H G, Niederacher D. Gene amplification and overexpression of CDK4 in sporadic breast carcinomas is associated with high tumor cell proliferation. Am J Pathol 1999; 154: 113-8; Samady L, Dennis J, Budhram-Mahadeo V, Latchman DS. Activation of CDK4 gene expression in human breast cancer cells by the Brn-3b POU family transcription factor. Cancer Biol Ther 2004; 3: 317-23; Takano Y, Takenaka H, Kato Y, Masuda M, Mikami T, Saegusa M, et al. Cyclin D1 overexpression in invasive breast cancers: correlation with cyclin-dependent kinase 4 and oestrogen receptor overexpression, and lack of correlation with mitotic activity.
MMTV-neu mice were generated and observed post-lactation, with tumors observed with a median latency of approximately 25 weeks. Mice were enrolled in therapy studies when tumors reached a standard size (50-60 mm3) that permitted easy serial assessment. […] Tumor volumes were calculated by the formula, Volume=[(width)^2×length]/2. Tumor-bearing mice were euthanized at the indicated times due to predefined morbidity, tumor ulceration, or a tumor size of more than 1.5 cm in diameter.
Tumors were serially assessed weekly using caliper measurements. Therapeutic intervention began once tumors reached 40-64 mm^3. Tumor volume was calculated using the formula […]. All three compounds were administered orally via medicated diets (100 mg/kg/d). Medicated diets were administered for 28 consecutive days and then stopped. RECIST criteria were used to assess objective response rates.

[3] = tested on: WM2664 cells (CDK4/6-dependent, Rb-positive); experiment: Cell cycle arrest (propidium iodide flow cytometry), WM2664; format: cell-based; details: 300 nM, 24 hours
From the text: To test the ability of CDK4/6 inhibitors to induce a clean G1-arrest, a cell based screening method was used consisting of two CDK4/6-dependent cell lines (tHS68 and WM2664; Rb-positive) and one CDK4/6-independent (A2058; Rb-negative) cell line. […] At the conclusion of the experiment, cells were harvested, fixed, and stained with propidium iodide (a DNA intercalator), which fluoresces strongly red (emission maximum 637 nm) when excited by 488 nm light. Samples were run on Dako Cyan flow cytometer and >10,000 events were collected for each sample. Data were analyzed using FlowJo 2.2 software developed by TreeStar, Inc.

[4] = tested on: Rb phosphorylation at Ser780 and Ser807/811 in tHS68 and WM2664; experiment: Rb phosphorylation western blot, CDK4/6-dependent cell lines; format: cell-based; details: 300 nM; 4, 8, 16, 24 hours
Protocol: as §1, §2

[5] = tested on: MCF7 (breast adenocarcinoma, Rb-positive); experiment: Cellular proliferation assay (CellTiter-Glo), MCF7; format: cell-based
Protocol: The MCF7 cells were seeded in Costar (Tewksbury, Mass.) 3903 96 well tissue culture treated white walled/clear bottom plates. A nine point dose response dilution series from 10 uM to 1 nM was performed and cell viability was determined after six days of compound treatment as indicated using the CellTiter-Glo® luminescent cell viability assay (CTG; Promega, Madison, Wis., United States of America) following the manufacturer's recommendations. Plates were read on a BioTek (Winooski, Vt.) Syngergy2 multi-mode plate reader. The Relative Light Units (RLU) were plotted as a result of variable molar concentration and data was analyzed using Graphpad (LaJolla, Calif.) Prism 5 statistical software to determine the EC50 for each compound.
Cellular proliferation assays were conducted using the following cancer cell lines: MCF7 (breast adenocarcinoma—Rb-positive), ZR-75-1 (breast ductal carcinoma—Rb-positive), H69 (human small cell lung cancer—Rb-negative) cells, or A2058 (human metastatic melanoma cells—Rb-negative). These cells were seeded in Costar (Tewksbury, Mass.) […] 96 well tissue culture treated white walled/clear bottom plates. Cells were treated with the compounds of Table 1 as nine point dose response dilution series from 10 uM to 1 nM. Cells were exposed to compounds and then cell viability was determined after either four (H69) or six (MCF7, ZR75-1, A2058) days as indicated using the CellTiter-Glo® luminescent cell viability assay (CTG; Promega, Madison, Wis., United States of America) following the manufacturer's recommendations. Plates were read on BioTek (Winooski, Vt.) Syngergy2 multi-mode plate reader. The Relative Light Units (RLU) were plotted as a result of variable molar concentration and data was analyzed using Graphpad (LaJolla, Calif.) Prism 5 statistical software to determine the EC50 for each compound.

Compound: CN1CCN(c2ccc(Nc3ncc4cc5n(c4n3)C3(CCCCC3)CNC5=O)nc2)CC1 [T]
- Rb phosphorylation in CDK4/6-independent cells (A2058) [1]: no effect
- tumor volume during a 28 day course of therapy ([2]; 100 mg/kg/d in chow, listed as Compound T): marked reduction in tumor volume
- tumor volume during a 28 day course of therapy ([2]; 100 mg/kg/d in chow, listed as compound T): marked decrease in tumor volume
- objective response rate ([2]; 100 mg/kg/day medicated diet, 28 days, RECIST criteria): 100%
- tumor volume during a 28 day course of therapy ([2]; 150 mg/kg/d in chow): marked reduction in tumor volume
- cell cycle distribution after treatment [3]: causes a loss of the S-phase peak
- Rb phosphorylation in CDK4/6-dependent cell lines (tHS68, WM2664) [4]: blocks Rb phosphorylation in Rb-dependent cell lines by 16 hours post exposure; also recorded: reduced Rb-phosphorylation starting 16 hours after treatment
- activity against MCF-7 cells compared with PD0332991 (FIG. 21) [5]: more potent activity against MCF-7 cells than PD0332991
- inhibition of cellular proliferation of MCF-7 cells (FIGS. 21-24) [5]: significant inhibition of cellular proliferation

From patent US9527857B2, “HSPC-sparing treatments for RB-positive abnormal cellular proliferation” (G1 Therapeutics, Inc., priority 2013, dated 2016)
